The target in one assay is T1, B2 bradykinin receptor (Homo sapiens, UniProt P30411). Also: in other assays of this panel Not Active means under 50% inhibition at 10 µM.
T1 sequence (P30411 whole entry): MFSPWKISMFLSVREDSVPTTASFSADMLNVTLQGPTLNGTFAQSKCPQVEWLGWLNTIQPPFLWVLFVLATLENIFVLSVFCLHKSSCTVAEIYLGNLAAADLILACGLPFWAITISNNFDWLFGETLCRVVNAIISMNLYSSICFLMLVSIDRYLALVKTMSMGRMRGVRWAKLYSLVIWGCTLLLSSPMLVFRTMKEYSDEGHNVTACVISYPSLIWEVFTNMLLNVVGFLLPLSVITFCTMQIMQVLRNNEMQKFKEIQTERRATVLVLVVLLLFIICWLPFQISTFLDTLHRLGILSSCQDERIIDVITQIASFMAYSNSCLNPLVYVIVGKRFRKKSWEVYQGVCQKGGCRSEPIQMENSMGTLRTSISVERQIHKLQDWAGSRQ
It is filed as cell membranes, Membrane. Conditions: chem-1.

The target of another assay is Vasopressin V1a receptor (Homo sapiens, UniProt P37288). It is filed as cell membranes, Membrane. The conditions noted are these: hek293. Also: in other assays of this panel Not Active means under 50% inhibition at 10 µM.
A further assay addresses Cannabinoid receptor 1 (Homo sapiens, UniProt P21554). It is filed as cell membranes, Chem-1, Membrane. Conditions: chem-1.
For assay [1], the target named is Sodium-dependent dopamine transporter (Homo sapiens, UniProt Q01959). Briefly: DRUGMATRIX: Dopamine Transporter radioligand binding (ligand: [125I] RTI-55). It is filed as cell membranes, CHO-K1, Membrane. The conditions noted are these: Not Active = under 50% inhibition at 10 µM.
A further assay deals with Melanocortin receptor 3 (Homo sapiens, UniProt P41968). It is filed as cell membranes, Membrane. Conditions: hek293.
Assay [2] is described as follows: DRUGMATRIX: Nicotinic Acetylcholine radioligand binding (ligand: [125I] Epibatidine). It is filed as cell membranes, Membrane. Conditions: imr-32; Not Active = under 50% inhibition at 10 µM.
The target in a further assay is T2, Adenosine receptor A3 (Homo sapiens, UniProt P0DMS8).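 Also: radioligand binding assay with AB-MECA serving as the labeled ligand; in other assays of this panel Not Active means under 50% inhibition at 10 µM.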
T2 sequence (P0DMS8 whole entry): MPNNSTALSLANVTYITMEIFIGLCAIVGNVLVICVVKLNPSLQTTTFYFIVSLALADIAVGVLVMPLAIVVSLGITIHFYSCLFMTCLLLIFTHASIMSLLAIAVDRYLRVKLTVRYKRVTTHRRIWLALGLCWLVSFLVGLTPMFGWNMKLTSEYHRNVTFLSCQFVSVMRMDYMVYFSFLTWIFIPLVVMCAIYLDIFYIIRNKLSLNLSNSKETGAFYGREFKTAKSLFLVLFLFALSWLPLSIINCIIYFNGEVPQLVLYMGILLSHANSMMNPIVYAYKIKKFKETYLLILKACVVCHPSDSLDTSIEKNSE
It is filed as cell membranes, CHO-K1, Membrane. Conditions: cho-k1.

Chain of Melanocortin receptor 3 (P41968 whole entry): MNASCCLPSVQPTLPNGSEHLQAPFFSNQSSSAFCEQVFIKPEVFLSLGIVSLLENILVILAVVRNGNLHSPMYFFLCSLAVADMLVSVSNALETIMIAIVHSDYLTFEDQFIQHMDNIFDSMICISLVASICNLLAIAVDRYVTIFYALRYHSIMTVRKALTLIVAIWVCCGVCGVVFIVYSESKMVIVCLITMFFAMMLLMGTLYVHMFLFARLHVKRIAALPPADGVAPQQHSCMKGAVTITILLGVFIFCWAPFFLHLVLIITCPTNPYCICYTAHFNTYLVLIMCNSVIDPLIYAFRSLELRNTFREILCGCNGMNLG
Chain of Cannabinoid receptor 1 (P21554 whole entry): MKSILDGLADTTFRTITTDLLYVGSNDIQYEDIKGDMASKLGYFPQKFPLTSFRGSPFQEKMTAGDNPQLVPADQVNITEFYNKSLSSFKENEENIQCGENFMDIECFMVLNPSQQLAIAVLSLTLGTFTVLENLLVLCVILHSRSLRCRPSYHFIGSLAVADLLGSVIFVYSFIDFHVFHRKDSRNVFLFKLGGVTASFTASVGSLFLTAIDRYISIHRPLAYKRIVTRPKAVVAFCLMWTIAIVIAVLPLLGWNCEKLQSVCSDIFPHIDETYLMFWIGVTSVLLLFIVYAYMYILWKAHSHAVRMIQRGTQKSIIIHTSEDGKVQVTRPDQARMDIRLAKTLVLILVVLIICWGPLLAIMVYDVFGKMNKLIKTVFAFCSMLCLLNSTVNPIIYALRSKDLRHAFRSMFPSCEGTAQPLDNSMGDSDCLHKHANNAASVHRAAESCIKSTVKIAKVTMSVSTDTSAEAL
Chain of Sodium-dependent dopamine transporter (Q01959 whole entry): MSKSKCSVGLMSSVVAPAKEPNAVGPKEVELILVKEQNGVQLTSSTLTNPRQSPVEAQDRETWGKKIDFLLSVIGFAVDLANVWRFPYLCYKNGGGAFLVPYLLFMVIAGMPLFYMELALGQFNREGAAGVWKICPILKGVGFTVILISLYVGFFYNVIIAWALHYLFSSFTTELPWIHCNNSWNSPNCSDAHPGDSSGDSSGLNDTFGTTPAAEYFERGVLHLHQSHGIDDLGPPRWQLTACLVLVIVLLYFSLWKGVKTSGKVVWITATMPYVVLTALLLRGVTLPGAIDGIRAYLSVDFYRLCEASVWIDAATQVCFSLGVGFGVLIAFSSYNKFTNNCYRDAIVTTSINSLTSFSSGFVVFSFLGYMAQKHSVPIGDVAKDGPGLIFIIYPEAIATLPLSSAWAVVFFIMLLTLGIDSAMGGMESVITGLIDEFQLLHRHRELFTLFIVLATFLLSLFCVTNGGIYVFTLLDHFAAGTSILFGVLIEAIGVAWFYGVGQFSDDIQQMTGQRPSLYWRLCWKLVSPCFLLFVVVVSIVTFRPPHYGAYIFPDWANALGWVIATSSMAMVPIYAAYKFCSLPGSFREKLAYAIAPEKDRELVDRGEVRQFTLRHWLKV
Chain of Vasopressin V1a receptor (P37288 whole entry): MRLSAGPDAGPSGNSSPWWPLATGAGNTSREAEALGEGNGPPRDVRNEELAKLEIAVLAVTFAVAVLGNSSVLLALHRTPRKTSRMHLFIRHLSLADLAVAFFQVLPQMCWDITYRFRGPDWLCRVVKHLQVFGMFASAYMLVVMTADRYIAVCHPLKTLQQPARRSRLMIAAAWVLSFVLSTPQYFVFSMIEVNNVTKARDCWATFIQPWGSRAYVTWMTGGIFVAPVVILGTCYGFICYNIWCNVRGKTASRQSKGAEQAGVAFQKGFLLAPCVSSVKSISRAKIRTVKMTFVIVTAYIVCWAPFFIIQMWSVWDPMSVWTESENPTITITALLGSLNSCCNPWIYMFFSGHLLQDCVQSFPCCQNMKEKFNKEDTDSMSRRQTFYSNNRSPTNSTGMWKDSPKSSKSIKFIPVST

Take `ClC(Cl)(Cl)Cl` [CARBON TETRACHLORIDE]: the IC50 entry (against B2 bradykinin receptor; at Vasopressin V1a receptor; at Cannabinoid receptor 1; in assay [1] (cho-k1); on Melanocortin receptor 3; in assay [2]) was “Not Active” in each case. In addition, the 50% inhibitory concentration (IC50) (usually the concentration at which inhibition is half-maximal) against Adenosine receptor A3 is “Not Active”. The inhibitory constant (Ki) – broadly, a dissociation constant, usually derived from enzyme kinetics or from competition with a known ligand – in assay [2] is “Not Active”.

With `CO/N=C(\C(=O)N[C@@H]1C(=O)N2C(C(=O)O)=C(COC(C)=O)CS[C@H]12)c1csc(N)n1` [CEFOTAXIME], the IC50 result (against B2 bradykinin receptor; against Vasopressin V1a receptor; against Cannabinoid receptor 1; in assay [1] (cho-k1); at Melanocortin receptor 3; in assay [2]) was “Not Active” in each case. The IC50 result at Adenosine receptor A3 was “Not Active”. In addition, the inhibition constant (Ki) result in assay [2] is on record as “Not Active”.

Turning to `CNC1=Nc2ccc(Cl)cc2C(c2ccccc2)=[N+]([O-])C1` [CHLORDIAZEPOXIDE], the half-inhibitory concentration (IC50) entry (against B2 bradykinin receptor; against Vasopressin V1a receptor; against Cannabinoid receptor 1; in assay [1] (cho-k1); against Melanocortin receptor 3; in assay [2]) was “Not Active” each time. Moreover, the IC50 result at Adenosine receptor A3 is listed as “Not Active”. Besides, the Ki entry in assay [2] is given as “Not Active”.

For the compound `Cc1cc(O)cc(C)c1Cl` [CHLOROXYLENOL], the IC50 result (against B2 bradykinin receptor; on Vasopressin V1a receptor; against Cannabinoid receptor 1; in assay [1] (cho-k1); against Melanocortin receptor 3; in assay [2]) was “Not Active” each time. Further, the IC50 entry against Adenosine receptor A3 is “Not Active”. Moreover, the inhibition constant (Ki) result in assay [2] was “Not Active”.

As for `CCCNC(=O)NS(=O)(=O)c1ccc(Cl)cc1` [CHLORPROPAMIDE], the IC50 result (against B2 bradykinin receptor; against Vasopressin V1a receptor; on Cannabinoid receptor 1; in assay [1] (cho-k1); against Melanocortin receptor 3; in assay [2]) was “Not Active” throughout. Also, the IC50 entry against Adenosine receptor A3 is on record as “Not Active”. Moreover, the Ki entry in assay [2] is listed as “Not Active”.

For the compound `NS(=O)(=O)c1cc(C2(O)NC(=O)c3ccccc32)ccc1Cl` (stereo not given) [CHLORTHALIDONE], the IC50 result (on B2 bradykinin receptor; at Vasopressin V1a receptor; on Cannabinoid receptor 1; in assay [1] (cho-k1); on Melanocortin receptor 3; in assay [2]) was “Not Active” each time. Besides, the IC50 result against Adenosine receptor A3 is reported as “Not Active”. Besides, the inhibition constant (Ki) entry in assay [2] is recorded as “Not Active”.

Take `O=C(O)CC(O)(CC(=O)O)C(=O)O` [CITRIC ACID]: the IC50 entry (at B2 bradykinin receptor; against Vasopressin V1a receptor; at Cannabinoid receptor 1; in assay [1] (cho-k1); against Melanocortin receptor 3; in assay [2]) was “Not Active” each time. For the same compound, on Adenosine receptor A3, the half-inhibitory concentration (IC50) result was “Not Active”. For the same compound, the Ki result in assay [2] is listed as “Not Active”.

On to `CC(C)NCC(O)c1ccccc1Cl` (stereo not given) [CLORPRENALINE], for which the concentration for half-maximal inhibition (IC50) result (on B2 bradykinin receptor; against Vasopressin V1a receptor; at Cannabinoid receptor 1; in assay [1] (cho-k1); against Melanocortin receptor 3; in assay [2]) was “Not Active” throughout. Further, the IC50 entry on Adenosine receptor A3 is “Not Active”. The inhibitory constant (Ki) result in assay [2] was “Not Active”.

With `CN1CCN(C(c2ccccc2)c2ccccc2)CC1` [CYCLIZINE], the concentration for half-maximal inhibition (IC50) entry at B2 bradykinin receptor is “Not Active”; against Vasopressin V1a receptor, “Not Active”; at Cannabinoid receptor 1, “Not Active”; in assay [1] (read-out: IC50) it was 763 nM; against Melanocortin receptor 3 it was “Not Active”; in assay [2] it was “Not Active”. Besides, at Adenosine receptor A3, the IC50 entry is “Not Active”. Also, the inhibition constant (Ki) in assay [1] (read-out: Ki) is 606 nM; in assay [2], “Not Active”.

For `CN1C[C@@H]2C[C@H]1CN2c1cc2c(cc1F)c(=O)c(C(=O)O)cn2C1CC1` [DANOFLOXACIN], the IC50 entry (at B2 bradykinin receptor; against Vasopressin V1a receptor; against Cannabinoid receptor 1; in assay [1] (cho-k1); against Melanocortin receptor 3; in assay [2]) was “Not Active” each time. Also, the IC50 result on Adenosine receptor A3 is on record as “Not Active”. Further, the Ki result in assay [2] was “Not Active”.

As to `COc1cccc2c1C(=O)c1c(O)c3c(c(O)c1C2=O)C[C@@](O)(C(C)=O)C[C@@H]3O[C@H]1C[C@H](N)[C@H](O)[C@H](C)O1` [DAUNORUBICIN], the half-maximal inhibitory concentration (IC50) result (against B2 bradykinin receptor; against Vasopressin V1a receptor; against Cannabinoid receptor 1; in assay [1] (cho-k1); against Melanocortin receptor 3; in assay [2]) was “Not Active” in each case. The concentration for half-maximal inhibition (IC50) entry on Adenosine receptor A3 is reported as “Not Active”. Further, the inhibition constant (Ki) result in assay [2] is “Not Active”.

Turning to `O=C(O)c1cc(-c2ccc(F)cc2F)ccc1O` [DIFLUNISAL], the half-maximal inhibitory concentration (IC50) result (at B2 bradykinin receptor; on Vasopressin V1a receptor; on Cannabinoid receptor 1; in assay [1] (cho-k1); against Melanocortin receptor 3; in assay [2]) was “Not Active” each time. Besides, the 50% inhibitory concentration (IC50) entry at Adenosine receptor A3 was “Not Active”. For the same compound, the inhibition constant (Ki) result in assay [2] was “Not Active”.

Take `C[S+](C)[O-]` [DIMETHYL SULFOXIDE]: the IC50 entry (at B2 bradykinin receptor; at Vasopressin V1a receptor; against Cannabinoid receptor 1; in assay [1] (cho-k1); against Melanocortin receptor 3; in assay [2]) was “Not Active” each time. Moreover, the half-maximal inhibitory concentration (IC50) result against Adenosine receptor A3 is “Not Active”. Moreover, in assay [2], the Ki entry is reported as “Not Active”.

`CC1=NN(c2ccccc2)C(=O)C1` [EDARAVONE]: the 50% inhibitory concentration (IC50) result (against B2 bradykinin receptor; on Vasopressin V1a receptor; against Cannabinoid receptor 1; in assay [1] (cho-k1); against Melanocortin receptor 3; in assay [2]) was “Not Active” in each case. The 50% inhibitory concentration (IC50) result against Adenosine receptor A3 is on record as “Not Active”. Also, the Ki entry in assay [2] was “Not Active”.

On to `CC(C)C[C@H]1C(=O)N2CCC[C@H]2[C@]2(O)O[C@](NC(=O)[C@@H]3C=C4c5cccc6[nH]cc(c56)C[C@H]4N(C)C3)(C(C)C)C(=O)N12` [ERGOCRYPTINE], for which the IC50 entry (against B2 bradykinin receptor; on Vasopressin V1a receptor; on Cannabinoid receptor 1; in assay [1] (cho-k1); on Melanocortin receptor 3; in assay [2]) was “Not Active” each time. For the same compound, the IC50 entry at Adenosine receptor A3 is “Not Active”. Besides, in assay [2], the inhibitory constant (Ki) entry was “Not Active”.

On to `C[C@]12CC[C@@H]3c4ccc(O)cc4CC[C@H]3[C@@H]1C[C@@H](O)[C@@H]2O` [ESTRIOL], for which the half-inhibitory concentration (IC50) result (on B2 bradykinin receptor; on Vasopressin V1a receptor; on Cannabinoid receptor 1; in assay [1] (cho-k1); at Melanocortin receptor 3; in assay [2]) was “Not Active” each time. In addition, the IC50 entry at Adenosine receptor A3 is given as “Not Active”. Besides, the Ki result in assay [2] is given as “Not Active”.

As for `C#C[C@]1(O)CC[C@H]2[C@@H]3CCC4=CC(=O)CC[C@]4(C)[C@H]3CC[C@@]21C` [ETHISTERONE], the concentration for half-maximal inhibition (IC50) entry (against B2 bradykinin receptor; against Vasopressin V1a receptor; at Cannabinoid receptor 1; in assay [1] (cho-k1); against Melanocortin receptor 3; in assay [2]) was “Not Active” throughout. Also, the IC50 entry against Adenosine receptor A3 was “Not Active”. Also, the inhibition constant (Ki) result in assay [2] is “Not Active”.

With `CC(O)(P(=O)(O)O)P(=O)(O)O` [ETIDRONIC ACID], the half-maximal inhibitory concentration (IC50) result (against B2 bradykinin receptor; on Vasopressin V1a receptor; on Cannabinoid receptor 1; in assay [1] (cho-k1); at Melanocortin receptor 3; in assay [2]) was “Not Active” each time. At Adenosine receptor A3, the 50% inhibitory concentration (IC50) entry was “Not Active”. The inhibition constant Ki result in assay [2] was “Not Active”.

These data come from ChEMBL document CHEMBL1909046, “DrugMatrix in vitro pharmacology data”.
